Measurements reported in ChEMBL document CHEMBL1144997, “Interaction of cis-(6-benzhydrylpiperidin-3-yl)benzylamine analogues with monoamine transporters: structure-activity relationship study of structurally constrained 3,6-disubstituted piperidine analogues of (2,2-diphenylethyl)-[1-(4-fluorobenzyl)piperidin-4-ylmethyl]amine” (J Med Chem, 2003).
pIC50: −log10 of the molar value.

How the values were obtained:
[1] = Ratio of [3H]- DA uptake to DAT binding was determined; type: functional
[2] = target: Sodium-dependent serotonin transporter (Rattus norvegicus, UniProt P31652); test: Binding affinity at serotonin transporter in rat striatum by [3H]citalopram displacement.; type: tissue-based
Sequence of Sodium-dependent serotonin transporter (P31652 whole entry): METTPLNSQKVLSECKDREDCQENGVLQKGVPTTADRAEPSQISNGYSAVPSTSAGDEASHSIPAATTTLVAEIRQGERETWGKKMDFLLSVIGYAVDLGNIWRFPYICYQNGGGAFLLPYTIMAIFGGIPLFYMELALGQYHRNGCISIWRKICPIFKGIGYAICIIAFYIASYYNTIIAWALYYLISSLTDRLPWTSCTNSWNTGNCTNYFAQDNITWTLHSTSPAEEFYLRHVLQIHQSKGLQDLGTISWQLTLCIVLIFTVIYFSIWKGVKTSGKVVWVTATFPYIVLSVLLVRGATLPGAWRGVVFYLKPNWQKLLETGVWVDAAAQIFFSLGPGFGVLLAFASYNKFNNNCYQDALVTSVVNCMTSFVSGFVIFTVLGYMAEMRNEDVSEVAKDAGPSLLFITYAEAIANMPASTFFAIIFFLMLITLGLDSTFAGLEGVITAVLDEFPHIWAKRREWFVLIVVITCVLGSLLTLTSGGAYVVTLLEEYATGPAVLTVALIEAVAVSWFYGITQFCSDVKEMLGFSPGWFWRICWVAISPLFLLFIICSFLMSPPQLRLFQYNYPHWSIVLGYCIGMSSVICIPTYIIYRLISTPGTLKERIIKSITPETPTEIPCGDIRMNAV

[3] = target: Norepinephrine transporter (Rattus norvegicus, UniProt Q9WTR4); test: Binding affinity at the norepinephrine transporter in rat striatum by [3H]nisoxetine displacement.; type: tissue-based
Sequence of Norepinephrine transporter (Q9WTR4 whole entry): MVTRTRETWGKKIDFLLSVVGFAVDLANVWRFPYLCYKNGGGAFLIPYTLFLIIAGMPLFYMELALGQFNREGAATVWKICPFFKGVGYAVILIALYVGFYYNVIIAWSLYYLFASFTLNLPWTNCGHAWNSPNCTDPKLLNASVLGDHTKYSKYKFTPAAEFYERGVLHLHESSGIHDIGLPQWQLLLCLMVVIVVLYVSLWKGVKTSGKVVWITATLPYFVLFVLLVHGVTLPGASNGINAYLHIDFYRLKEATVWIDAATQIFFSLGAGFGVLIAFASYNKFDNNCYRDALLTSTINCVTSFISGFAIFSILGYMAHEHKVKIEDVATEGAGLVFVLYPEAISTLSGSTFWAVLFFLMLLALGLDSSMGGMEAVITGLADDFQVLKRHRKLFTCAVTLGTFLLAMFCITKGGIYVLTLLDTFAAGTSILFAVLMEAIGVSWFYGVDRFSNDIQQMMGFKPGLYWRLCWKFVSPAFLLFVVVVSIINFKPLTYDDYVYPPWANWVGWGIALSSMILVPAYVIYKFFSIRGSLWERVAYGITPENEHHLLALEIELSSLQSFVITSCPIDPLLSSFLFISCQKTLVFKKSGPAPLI

[4] = target: Sodium-dependent dopamine transporter (Rattus norvegicus, UniProt P23977); test: biochemical; type: tissue-based, Striatum
Sequence of Sodium-dependent dopamine transporter (P23977 whole entry): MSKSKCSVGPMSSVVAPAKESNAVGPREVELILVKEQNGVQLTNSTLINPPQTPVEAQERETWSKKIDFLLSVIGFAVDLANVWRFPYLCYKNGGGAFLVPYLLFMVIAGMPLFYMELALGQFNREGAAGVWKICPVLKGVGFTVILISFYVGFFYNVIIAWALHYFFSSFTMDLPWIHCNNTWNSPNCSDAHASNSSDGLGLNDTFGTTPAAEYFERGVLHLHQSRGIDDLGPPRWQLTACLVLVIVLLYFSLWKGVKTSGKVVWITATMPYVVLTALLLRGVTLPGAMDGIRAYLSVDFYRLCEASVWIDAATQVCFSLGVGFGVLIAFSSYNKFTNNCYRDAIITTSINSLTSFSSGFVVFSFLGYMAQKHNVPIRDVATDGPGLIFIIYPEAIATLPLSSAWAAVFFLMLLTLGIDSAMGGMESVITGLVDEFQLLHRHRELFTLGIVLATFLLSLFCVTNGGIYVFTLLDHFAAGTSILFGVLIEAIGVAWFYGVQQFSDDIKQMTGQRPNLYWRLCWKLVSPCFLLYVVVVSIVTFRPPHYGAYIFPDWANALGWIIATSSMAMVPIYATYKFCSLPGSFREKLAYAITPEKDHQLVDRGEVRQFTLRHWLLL
Description: Binding affinity at the dopamine transporter in rast striatum by [3H]WIN-35428 displacement.

Rattus norvegicus = species: Rattus norvegicus; test: Inhibition of DAT uptake was determined by measuring the [3H]DA accumulation in rat striatal synaptosomes; type: functional; conditions: Brain

SMILES | Selectivity ratio [1] | pIC50 [2] | pIC50 [3] | pIC50 [4] | pIC50 (Rattus norvegicus)
Fc1ccc(CN2CCC(CNCC(c3ccccc3)c3ccccc3)CC2)cc1 | 2.5 | – | – | – | –
c1ccc(C(c2ccccc2)[C@H]2CC[C@@H](NCc3cccs3)CN2)cc1 | – | 5.44 | 5.33 | 6.57 | –
c1ccc(C(c2ccccc2)[C@H]2CC[C@@H](NCc3c[nH]c4ccccc34)CN2)cc1 | – | 5.52 | 5.42 | 6.08 | –
COc1ccc(CN[C@@H]2CC[C@H](C(c3ccccc3)c3ccccc3)NC2)cc1 | 0.85 | 5.98 | 5.95 | 7.32 | 7.39
Fc1ccc(CCNC2CCC(C(c3ccccc3)c3ccccc3)NC2)cc1 (stereo not given) | – | 5.66 | 5.76 | 6.76 | –
Oc1ccc(CN[C@@H]2CC[C@H](C(c3ccccc3)c3ccccc3)NC2)cc1 | – | 6.06 | 6.70 | 7.18 | –
c1ccc(C(c2ccccc2)[C@H]2CC[C@@H](NCc3cc4ccccc4[nH]3)CN2)cc1 | 0.53 | 5.74 | 6.00 | 7.02 | 7.29
c1ccc(C(c2ccccc2)[C@H]2CC[C@@H](NCc3csc4ccccc34)CN2)cc1 | – | 5.56 | 5.98 | 6.29 | –
Fc1ccc(CN[C@H]2CC[C@@H](C(c3ccccc3)c3ccccc3)NC2)cc1 | 1.6 | 5.88 | 5.85 | 7.47 | 7.27
N#Cc1ccc(CN[C@H]2CC[C@@H](C(c3ccccc3)c3ccccc3)NC2)cc1 | 0.8 | 6.36 | 5.78 | 7.95 | 8.04
c1ccc(CN[C@@H]2CC[C@H](C(c3ccccc3)c3ccccc3)NC2)cc1 | – | 5.67 | 6.21 | 6.94 | –
Fc1ccc(CN[C@@H]2CC[C@H](C(c3ccccc3)c3ccccc3)NC2)cc1F | 1.2 | 5.65 | 5.80 | 7.20 | 7.11
Fc1ccc(CN[C@@H]2CC[C@H](C(c3ccccc3)c3ccccc3)NC2)cc1 | 0.62 | 5.45 | 5.64 | 6.64 | 6.85
N#Cc1ccc(CN[C@@H]2CC[C@H](C(c3ccccc3)c3ccccc3)NC2)cc1 | 1.4 | 5.81 | 4.78 | 6.96 | 6.82
Fc1ccc(CNC2CCC(C(c3ccccc3)c3ccccc3)NC2)cc1 (racemic) | 1.4 | – | – | – | –
